A word on the IC50: it is the midpoint of a concentration-inhibition curve. Low values mean inhibition by little substance, high ones a need for much substance.

For four molecules, nH and IC50 results are on record in US8138191B2, “Inhibitor compounds and cancer treatment methods” (Critical Outcome Technologies Inc., priority 2007, dated 2012).

Molecules are shown by their SMILES.

One series deals with CYP2C9 (Homo sapiens, UniProt P11712). The series is described as follows: CYP2C9 Inhibition (HLM, diclofenac substrate).
A further series concerns the target CYP2C19 (Homo sapiens, UniProt P33261). The series is described as follows: CYP2C19 Inhibition (HLM, omeprazole substrate).
Series [1] concerns the target T1, CYP2B6 (Homo sapiens, UniProt P20813).
T1 sequence (P20813 1-491): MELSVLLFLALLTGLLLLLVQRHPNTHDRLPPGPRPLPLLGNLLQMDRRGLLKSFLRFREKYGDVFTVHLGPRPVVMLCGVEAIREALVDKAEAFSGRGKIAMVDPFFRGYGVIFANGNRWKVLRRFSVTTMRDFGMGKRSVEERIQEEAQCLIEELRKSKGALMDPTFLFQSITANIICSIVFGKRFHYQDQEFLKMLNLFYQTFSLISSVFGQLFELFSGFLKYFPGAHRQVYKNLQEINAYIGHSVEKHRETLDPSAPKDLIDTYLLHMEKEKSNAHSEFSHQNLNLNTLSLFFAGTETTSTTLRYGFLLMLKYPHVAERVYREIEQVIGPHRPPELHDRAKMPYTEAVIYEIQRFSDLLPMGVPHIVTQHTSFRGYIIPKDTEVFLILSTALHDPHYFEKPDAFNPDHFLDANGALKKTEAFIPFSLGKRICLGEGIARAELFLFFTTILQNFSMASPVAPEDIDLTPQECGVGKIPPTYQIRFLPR
The conditions noted are these: both, 15 min, pH 7.4.

The target of series [2] is T1, CYP2B6. The series is described as follows: biochemical.
The next series has as its target T2, CYP2C8 (Homo sapiens, UniProt P10632).
T2 sequence (P10632 1-490): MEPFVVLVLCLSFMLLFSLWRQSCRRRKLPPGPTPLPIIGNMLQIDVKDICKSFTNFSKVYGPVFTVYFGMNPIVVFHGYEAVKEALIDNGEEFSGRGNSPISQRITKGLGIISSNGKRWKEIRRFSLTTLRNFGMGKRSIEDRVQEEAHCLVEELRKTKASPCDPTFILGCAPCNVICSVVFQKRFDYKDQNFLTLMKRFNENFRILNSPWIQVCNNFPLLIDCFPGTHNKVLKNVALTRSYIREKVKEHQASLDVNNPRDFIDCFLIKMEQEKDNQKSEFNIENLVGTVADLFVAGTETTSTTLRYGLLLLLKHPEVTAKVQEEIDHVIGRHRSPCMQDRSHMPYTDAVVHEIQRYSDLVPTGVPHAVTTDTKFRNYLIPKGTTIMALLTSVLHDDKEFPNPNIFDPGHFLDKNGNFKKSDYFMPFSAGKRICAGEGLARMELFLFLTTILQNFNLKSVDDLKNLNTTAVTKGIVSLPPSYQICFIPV
As to the kind of experiment: CYP2C8 Inhibition (HLM, paclitaxel substrate).

Chain of CYP2C9 (P11712 whole entry): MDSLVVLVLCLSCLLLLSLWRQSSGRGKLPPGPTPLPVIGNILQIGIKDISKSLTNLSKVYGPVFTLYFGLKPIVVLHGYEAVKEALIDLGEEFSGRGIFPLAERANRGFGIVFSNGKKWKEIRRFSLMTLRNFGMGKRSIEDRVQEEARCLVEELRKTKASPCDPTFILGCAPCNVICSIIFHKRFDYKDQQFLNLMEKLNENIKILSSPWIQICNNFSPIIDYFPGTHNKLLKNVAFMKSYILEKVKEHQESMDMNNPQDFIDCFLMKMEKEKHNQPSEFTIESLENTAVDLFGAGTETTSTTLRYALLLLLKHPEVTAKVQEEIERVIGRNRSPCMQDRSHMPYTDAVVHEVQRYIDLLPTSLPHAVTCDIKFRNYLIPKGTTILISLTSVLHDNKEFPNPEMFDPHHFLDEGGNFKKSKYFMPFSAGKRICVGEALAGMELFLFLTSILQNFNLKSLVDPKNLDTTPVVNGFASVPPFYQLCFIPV
Chain of CYP2C19 (P33261 whole entry): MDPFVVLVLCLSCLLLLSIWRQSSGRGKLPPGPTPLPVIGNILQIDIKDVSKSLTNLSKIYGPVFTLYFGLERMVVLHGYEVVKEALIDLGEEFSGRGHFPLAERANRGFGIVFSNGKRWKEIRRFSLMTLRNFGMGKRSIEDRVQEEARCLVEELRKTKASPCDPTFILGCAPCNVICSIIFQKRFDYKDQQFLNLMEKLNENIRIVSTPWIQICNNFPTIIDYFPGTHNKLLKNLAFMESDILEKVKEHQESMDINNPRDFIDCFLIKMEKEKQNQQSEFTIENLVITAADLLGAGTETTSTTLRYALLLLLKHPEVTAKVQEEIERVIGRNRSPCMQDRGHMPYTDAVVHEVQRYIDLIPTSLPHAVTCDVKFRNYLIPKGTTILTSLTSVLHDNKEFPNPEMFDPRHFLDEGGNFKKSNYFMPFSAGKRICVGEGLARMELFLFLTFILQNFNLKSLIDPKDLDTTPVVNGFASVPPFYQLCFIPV

As to `Nc1ccc(S(=O)(=O)Nc2ccnn2-c2ccccc2)cc1` [Sulfaphenazole], at CYP2C9, the nH was 1.1.

On CYP2C19, `CCN(CC)CC#CCOC(=O)C(O)(c1ccccc1)C1CCCCC1` (centres unmarked) [Oxybutynin] showed a nH of 1.1.

On CYP2B6 [1], `COC(=O)[C@H](c1ccccc1Cl)N1CCc2sccc2C1` [Clopidogrel] came in with a nH of 2.7. Moreover, half-maximal inhibition at CYP2B6 [2] (IC50) required 640 nM.

Regarding `COC(=O)C1=C(C)NC(C)=C(C(=O)OCCN(C)Cc2ccccc2)C1c1cccc([N+](=O)[O-])c1` (centres unmarked) [Nicardipine], at CYP2C8, the nH worked out at 1.2.
